Experimental findings from patent US12233060B2, “Inhibitors of Ataxia-Telangiectasia Mutated and Rad3-related protein kinase (ATR) for use in methods of treating cancer” (THE INSTITUTE OF CANCER RESEARCH: ROYAL CANCER HOSPITAL, priority 2016, dated 2025) are described below.

The test system of assay [1] is HCT116 ARID1A+/+ and ARID1A−/− cells. Briefly: Cell cycle analysis of synchronized cells (G2/M fraction, FACS). Format: cell-based, human. The settings on record: double thymidine block, release into VX-970 (500 nM). As for the experimental part: FIG. 5. ATRi effect on cell cycle progression, chromosomal instability, DNA damage and apoptosis. A. Barchart illustrating G2/M fraction in HCT116 ARID1A^+/+ and ARID1A^−/− cells synchronized in G1/early S phase by double thymidine block and released into fresh media containing DMSO or VX-970 (500 nM). The percentage of cells in G2/M was measured by FACS following PI staining. […] Cells were stained with DAPI. A minimum of 50 anaphases were scored in 3 biological replicate experiments. *p=0.023, Student's t-test. C. Bar chart illustrating frequency of anaphase bridges in TOV21G cells exposed to VX-970 (0.5 uM) or DMSO for 8 hours prior to fixation. Experiment performed as for (B). p=0.006 Student's t-test. D. Mitotic spread images from HCT116 ARID1A^+/+ and ARID1A^−/− cells following exposure to either DMSO or VX-970 (1 uM). Scale bar represents 20 um. E. Bar chart illustrating extent of chromosomal abnormalities in HCT116 ARID1A^+/+ and ARID1A^−/− cells exposed to VX-970 (1 uM). *p<0.05, Student's t-test. […]
Cells were plated at a density of 2×10^5 cells per well of a six-well plate and incubated for 24 hours after which ATRi or 0.1% DMSO was added for the indicated period of time. […] Samples were analyzed on a BD LSR II flow cytometer using BD FACSDiva software (BD Biosciences). […]

In a further assay the test system is HCT116 cells. The assay is described as follows: VX-970 dose response after siRNA silencing of BAF components. Format: cell-based, human. The settings on record: HCT116, 5 days exposure; p<0.0001 ANOVA. The protocol:
FIG. 6. BAF complex deficiency causes sensitivity to ATR inhibition. A. Schematic of BAF complex composition in human cells. B. VX-970 dose response curves from HCT116 cells transfected with siRNA targeting ARID1B or SMARCA4. 48 hours after transfection cells were exposed to VX-970 for 5 days. Error bars represent SD from triplicate experiments. p<0.0001, ANOVA for siARID1B and siSMARCA4 vs. siCON. C. Western blots illustrating ARID1B and SMARCA4 silencing in experiment (B). D. VX-970 dose response curves from four OCCC cell lines, 3 SMARCA4 wildtype (blue; RMG1, KK and ES2) and 1 SMARCA4 mutant (red; TOV112D). E. Bar chart illustrating surviving fraction after five days VX-970 exposure in HCC1143 and He1a cells transfected with siRNA targeting either SMARCA4 or ARID1A *p<0.05 by Student's t-test compared to siCon. F. Western blot illustrating level of chromatin bound TOP2A in HCT116 cells transfected siRNA targeting ARID1A, ARID1B or SMARCA4. Cells were analysed 48 hours after transfection. G. A model for the proposed mechanism driving the sensitivity of ARID1A-deficient cells to ATRi. […]
Short-term survival assays were performed in 384-well plates. […] Drug was added 24 h after seeding and cells were continuously exposed to the drug for five days, after which cell viability was estimated using CellTitre-Glo luminescence (Promega). […] Colonies were counted manually. […]

Turning to `CNCc1ccc(-c2cc(-c3nc(-c4ccc(S(=O)(=O)C(C)C)cc4)cnc3N)on2)cc1` [VX-970, 5-[4-(Isopropylsulfonyl)phenyl]-3-(3-{4-[(methylamino)methyl]phenyl}-1,2-oxazol-5-yl)-2-pyrazinamine], the “G2/M delay in ARID1A−/− cells” value in assay [1] is on record as “abrogated the G2/M delay”. Further, the “VX-970 sensitivity after silencing of SMARCA4, ARID1B or SMARCB1” value with HCT116 cells was “enhanced sensitivity”.
